Assay results from patent publication US7662826B2, “Pyrazolo [1,5-a] pyrimidine derivative and nad (p) h oxidase inhibitor containing the same” (Shionogi & Co., Ltd., priority 2002, dated 2010).

| melting point | SMILES |
| --- | --- |
| 212 °C | O=C1CCN(c2ccccc2NC(=O)c2cnc3c(-c4cccc(Cl)c4)cnn3c2)CC1 [Compound B1] |
| 215 to 217 °C | CNC1CCN(c2ccccc2NC(=O)c2cnc3c(-c4cccc(Cl)c4)cnn3c2)CC1 [Compound B3] |
| 193 to 195 °C | CCNC1CCN(c2ccccc2NC(=O)c2cnc3c(-c4cccc(Cl)c4)cnn3c2)CC1 [Compound B5] |
| 187 to 189 °C | CCCNC1CCN(c2ccccc2NC(=O)c2cnc3c(-c4cccc(Cl)c4)cnn3c2)CC1 [Compound B6] |
| 191 to 192 °C | CCCCNC1CCN(c2ccccc2NC(=O)c2cnc3c(-c4cccc(Cl)c4)cnn3c2)CC1 [Compound B8] |
| 206 to 208 °C | CC(C)NC1CCN(c2ccccc2NC(=O)c2cnc3c(-c4cccc(Cl)c4)cnn3c2)CC1 [Compound B9] |
| 202 to 204 °C | CCC(C)NC1CCN(c2ccccc2NC(=O)c2cnc3c(-c4cccc(Cl)c4)cnn3c2)CC1 (stereo not shown) [Compound B11] |
| 226 to 228 °C | CNC1CCN(c2ccccc2NC(=O)c2cnc3c(-c4ccc(Cl)cc4)cnn3c2)CC1 [Compound B16] |
| 234 to 236 °C | CCNC1CCN(c2ccccc2NC(=O)c2cnc3c(-c4ccc(Cl)cc4)cnn3c2)CC1 [Compound B17] |
| 246 to 247 °C | CC(C)NC1CCN(c2ccccc2NC(=O)c2cnc3c(-c4ccc(Cl)cc4)cnn3c2)CC1 [Compound B18] |
| 235 to 237 °C | CCCNC1CCN(c2ccccc2NC(=O)c2cnc3c(-c4ccc(Cl)cc4)cnn3c2)CC1 [Compound B19] |
| 229 to 230 °C | C=CCNC1CCN(c2ccccc2NC(=O)c2cnc3c(-c4ccc(Cl)cc4)cnn3c2)CC1 [Compound B20] |
| 222 to 224 °C | CCCCNC1CCN(c2ccccc2NC(=O)c2cnc3c(-c4ccc(Cl)cc4)cnn3c2)CC1 [Compound B23] |
| 256 to 261 °C | O=C(Nc1ccccc1N1CCC(O)CC1)c1cnc2c(-c3ccc(Cl)cc3)cnn2c1 [Compound B24] |
| 134 to 136 °C | O=C(Nc1ccccc1N1CCC[C@H]1CNCCO)c1cnc2c(-c3ccc(Cl)cc3)cnn2c1 [Compound B25] |
| 184 to 186 °C | N[C@@H]1CCN(c2ccccc2NC(=O)c2cnc3c(-c4ccc(Cl)cc4)cnn3c2)C1 [Compound B28] |
| 203 to 204 °C | NC[C@@H]1CCCN1c1ccccc1NC(=O)c1cnc2c(-c3ccc(Cl)cc3)cnn2c1 [Compound B30] |
| 137 to 140 °C | CNC1CCN(c2ccccc2NC(=O)Nc2cnc3c(-c4ccc(Cl)cc4)cnn3c2)CC1 [Compound B36] |
| 155 to 157 °C | CCNC1CCN(c2ccccc2NC(=O)Nc2cnc3c(-c4ccc(Cl)cc4)cnn3c2)CC1 [Compound B38] |
| 196 to 197 °C | O=C(NCc1ccccc1N1CCNCC1)Nc1cnc2c(-c3cccc(Cl)c3)cnn2c1 [Compound B40] |
| 151 to 153 °C | CCCNC1CCN(c2ccccc2NC(=O)Nc2cnc3c(-c4ccc(Cl)cc4)cnn3c2)CC1 [Compound B41] |
| 152 to 153 °C | C=CCNC1CCN(c2ccccc2NC(=O)Nc2cnc3c(-c4ccc(Cl)cc4)cnn3c2)CC1 [Compound B43] |
| 117 to 128 °C (dec.) | CNC1CCN(c2ccccc2NC(=O)Nc2cnc3c(-c4cccc(Cl)c4)cnn3c2)CC1 [Compound B55] |
| 157 to 159 °C (dec.) | CCNC1CCN(c2ccccc2NC(=O)Nc2cnc3c(-c4cccc(Cl)c4)cnn3c2)CC1 [Compound B58] |
| 150 to 154 °C (dec.) | C=CCNC1CCN(c2ccccc2NC(=O)Nc2cnc3c(-c4cccc(Cl)c4)cnn3c2)CC1 [Compound B59] |
| 269 to 271 °C | O=C(Nc1cnc2c(-c3cccc(Cl)c3)cnn2c1)c1ccccc1N1CCNCC1 [Compound B165] |

| melting point | SMILES |
| --- | --- |
| 125 to 127 °C | O=C(Nc1ccccc1N1CC[C@@H](NCCO)C1)c1ccn2ncc(-c3cccc(Cl)c3)c2n1 [Compound B170] |
| 124 to 125 °C | O=C(Nc1ccccc1N1CC[C@H](NCCO)C1)c1ccn2ncc(-c3cccc(Cl)c3)c2n1 [Compound B171] |
| 151 to 152 °C | NCCN[C@@H]1CCN(c2ccccc2NC(=O)c2ccn3ncc(-c4cccc(Cl)c4)c3n2)C1.O=C(O)/C=C/C(=O)O [Compound B172] |
| 160 to 162 °C | NCCN[C@H]1CCN(c2ccccc2NC(=O)c2ccn3ncc(-c4cccc(Cl)c4)c3n2)C1 [Compound B173] |
| 168 to 170 °C | NC[C@H]1CCCN1c1ccccc1NC(=O)c1ccn2ncc(-c3cccc(Cl)c3)c2n1 [Compound B196] |
| 118 to 121 °C | O=C(Nc1ccccc1N1CCC[C@@H]1CNCCO)c1ccn2ncc(-c3cccc(Cl)c3)c2n1 [Compound B198] |
| 152 to 155 °C | CCCNC1CCN(c2ccccc2NC(=O)Nc2cnc3c(-c4cccc(Cl)c4)cnn3c2)CC1 [Compound B199] |
| > 300 °C | CC(C)NC1CCN(c2ccccc2NC(=O)Nc2cnc3c(-c4ccc(Cl)cc4)cnn3c2)CC1 [Compound B203] |
| 97 to 98 °C | CNC[C@H]1CCCN1c1ccccc1NC(=O)c1ccn2ncc(-c3cccc(Cl)c3)c2n1 [Compound B215] |
| 183 to 184 °C | O=C(Nc1cnc2c(-c3ccc(Cl)cc3)cnn2c1)Nc1ccccc1N1CCNCC1 [Compound B218] |
| 229 to 231 °C | CCC(C)NC1CCN(c2ccccc2NC(=O)c2cnc3c(-c4ccc(Cl)cc4)cnn3c2)CC1 (stereo not shown) [Compound B243] |
| 164 to 165 °C | O=C(Nc1ccccc1N1CC[C@@H](NCCO)C1)c1cnc2c(-c3ccc(Cl)cc3)cnn2c1 [Compound B245] |
| 120 to 140 °C | O=C(Nc1cnc2c(-c3cccc(Cl)c3)cnn2c1)Nc1ccccc1N1CCNCC1 [Compound B249] |
| 185 to 187 °C | O=C(NCc1ccccc1N1CCNCC1)Nc1cnc2c(-c3ccc(Cl)cc3)cnn2c1 [Compound B263] |
| 236 to 238 °C | O=C(Nc1cnc2c(-c3ccc(Cl)cc3)cnn2c1)c1ccccc1N1CCNCC1 [Compound B277] |
| 267 to 269 °C (dec.) | O=C(Nc1ccc(N2CCNCC2)cc1)c1cnc2c(-c3ccc(Cl)cc3)cnn2c1 [Compound B280] |
| 190 to 191 °C | Clc1cccc(-c2cnn3ccc(/C4=N/c5ccccc5N5CCCCC5CN4)nc23)c1 (stereo not shown) [Compound B292] |
| 138 to 143 °C | CCCCNC1CCN(c2ccccc2NC(=O)Nc2cnc3c(-c4ccc(Cl)cc4)cnn3c2)CC1 [Compound B293] |
| 211 to 212 °C | NCCC1CCCCN1c1ccccc1NC(=O)c1ccn2ncc(-c3cccc(Cl)c3)c2n1.O=C(O)/C=C/C(=O)O (stereo not shown) [Compound B313] |
| 100 to 102 °C (dec.) | COc1ccc(NC(=O)c2ccn3ncc(-c4cccc(Cl)c4)c3n2)cc1N1CCNCC1 [Compound B314] |
| 159 to 160 °C | NCC1CCCCN1c1ccccc1NC(=O)c1ccn2ncc(-c3cccc(Cl)c3)c2n1 (stereo not shown) [Compound B316] |
| 210 to 212 °C | COc1ccc(NC(=O)c2ccn3ncc(-c4ccc(Cl)cc4)c3n2)cc1N1CCNCC1 [Compound B317] |
| 186 to 188 °C | NC[C@H]1CCCN1c1ccccc1NC(=O)c1ccn2ncc(-c3ccc(Cl)cc3)c2n1 [Compound B318] |
| 216 to 217 °C | CCCNC1CCN(c2ccccc2NC(=O)C2=CNc3c(-c4ccc(Cl)cc4)cnn3C2)CC1 [Compound B319] |
| > 300 °C | CCC(C)NC1CCN(c2ccccc2NC(=O)Nc2cnc3c(-c4ccc(Cl)cc4)cnn3c2)CC1 (stereo not shown) [Compound B336] |
| 190 to 192 °C | O=C(NCc1ccccc1N1CCOCC1)c1ccn2nc(-c3ccccc3)cc2n1 [Example 12, N-(2-morpholinophenyl)methyl 2-phenyl-pyrazolo-[1,5-a]-pyrimidine-5-amide] |
